Entries after “also recorded” stand apart in the source; their conditions may differ.

Data set [1] deals with ischaemic area caused by occlusion of middle cerebral artery (MCA). In words: Experimental cerebral ischaemia test (endothelin-1 occlusion of middle cerebral artery). The settings on record: for Extent of cerebral ischaemia due to occlusion of the MCA (% reduction in volume compared to controls): intravenous, five minutes after endothelin injection, carnitines 100 mg/kg, coenzyme Q10 50 mg/kg, evaluated three days later; for ability to reduce the extent of the ischaemia induced by occlusion of the MCA (in words): summary of Table 3. The data set is classed as in vivo, rat. Here is the method:
With this test, the ischaemic area caused by occlusion of middle cerebral artery (MCA) was evaluated using the method described by Scharkey (Scharkey Y., Nature, 371:336, 1994), performed by injecting endothelin-1 (120 pmol in […]) in 5 minutes into anaesthetised rats with a microcannula placed stereotactically in the piriform cortex at the level of the middle cerebral artery. With this method, occlusion of the middle cerebral artery is induced and the resulting ischaemic area can be visualised three days later with transcardiac perfusion of a paraformaldehyde solution (4% in PBS). After extracting the cerebral mass, the latter was placed for twenty-four hours in a fixative containing 10% sucrose, and cryostat sections ([…]) fixed with resyl violet were examined under the optical microscope. The volume of the infarcted area was calculated according to the method described by Park (Park C. K., Ann. Neurol., 20:150, 1989).

Data set [2] deals with vascular thrombosis of the rat tail induced by K-carrageenin and endothelin-1. In words: Experimental thrombotic vascular disease test (K-carrageenin + endothelin-1, rat tail). Conditions: for % inhibition of thrombosis after 2 h: 2 h after K-carrageenin; for % inhibition of thrombosis after 24 h: 24 h after K-carrageenin; for protective effect against the onset or severity of the vasculopathy lesions induced (in words): summary of Tables 1 and 2. The data set is classed as in vivo. Here is the method:
The method used in these tests was that described by Bekemeier (Bekemeier H., Agents and Actions, 16:446, 1985) modified by Bertelli (Bertelli A., Drugs Exptl. Clin. Res., 19:7, 1993) which consists in injecting K-carrageenin (0.5 mg/kg carrageenin, Sigma Chemical St. Louis Mo., USA) into the dorsal artery of the rat tail and, immediately prior to the K-carrageenin injection, 500 pmol/kg of endothelin-1 (Peninsula Laboratories, Belmont Calif., USA) by intravenous injection. With this method, as early as the second hour after injection of K-carrageenin, vascular thrombosis developed which could be estimated by measuring the length of the infarcted portion of the tail, the length of the entire tail and the ratio between the two (% infarcted tail).
The phenomenon was assessed two and twenty-four hours after injection of K-carrageenin. […]

For data set [3], the system named is papillary muscle of rabbit heart subjected to hypoxia. In words: Myocardial anti-anoxic activity test (ATP in hypoxic papillary muscle). The data set is classed as in vivo. Conditions: for ATP concentrations, after hypoxia / ATP concentrations, before hypoxia: daily i.v. for three days (carnitines 100 mg/kg, combination 5 x 25 mg/kg, coenzyme Q10 50 mg/kg); for ATP concentrations, after hypoxia: after a 90 min anoxia period; for ATP concentrations, before hypoxia: papillary muscle under oxygen perfusion for 90 min; for preservation of ATP concentrations in papillary muscle (in words): summary of Table 4. An excerpt:
This test was used to assess the ability of propionyl L-carnitine to protect the myocardium against the loss of ATP induced by anoxia and to preserve energy capacity even in these conditions.
An attempt was therefore made to establish whether prior treatment with propionyl L-carnitine, L-carnitine, carnitine combination or coenzyme Q10 alone or in combination with propionyl L-carnitine or with the other preparations was capable of preserving normal ATP concentrations in the hypoxic myocardium.
After three days of treatment, all the animals were sacrificed. Sections of papillary muscle measuring 1 mm in diameter and 4-5 mm in thickness were isolated. These samples of papillary muscle were perfused in a thermostatic bath with a saturated solution of 100% O2. The hypoxia was then produced by introducing 100% N2 in the bath in place of O2. The ATP concentrations in papillary muscle were measured using the method described by Strehler (Strehler B. L., Methods in Enzymology, 111, N.Y. Acad. Press, 879, 1957). The analysis was done on tissue samples maintained under oxygen perfusion for 90 min and after a 90 min anoxia period.

The subject of data set [4] is mice administered scopolamine. The data set can be described thus: Learning test (water maze, scopolamine-treated mice). The data set is classed as in vivo, mouse. Conditions: for activity in the learning test (in words): summary of Table 5; for Latency period, administration (per os, 3 days): oral for three consecutive days, carnitines 300 mg/kg, coenzyme Q10 20 mg/kg; for Latency period, administration (per os, 3 days) / Latency period, administration (I.P.): scopolamine 3 mg/kg i.p.; for Latency period, administration (I.P.): single intraperitoneal dose one hour before test, carnitines 100 mg/kg, coenzyme Q10 50 mg/kg. Here is the method:
These tests were performed in mice using the water maze procedure as described by Morris (Morris R., J. Neurosci. Meth., 11:47, 1984) and modified by Lin (Lin Y., Acta Pharmacol. Sin., 19:413, 1998). The procedure consists in placing, in a maze situated in a tank containing water (80 cm×50 cm×20 cm) 10 cm deep, mice of both sexes weighing approximately 20 g each, which, after a suitable period of training in the task of finding their way back to the final platform and after selecting those that took less than 20 min to do so, were divided into various groups.
Both intraperitoneal and oral administration were carried out one hour prior to the start of the test. Half an hour before the start all the animals were administered scopolamine intraperitoneally at the dose of 3 mg/kg. As is known, scopolamine induces abnormalities of spatial orientation and prolongs latency time in finding the way to reach the platform.
After the test the latency time to reach the platform was calculated for each animal.

Data set [5] has as its system Sprague-Dawley male rats. In words: Toxicology test, single oral administration of high doses. The settings on record: propionyl L-carnitine 2 g/kg, coenzyme Q10 0.2 g/kg, or the same amounts in combination. The data set is classed as in vivo. From the text:
Their use in combination also produces no damaging toxicological effects.

[6] abbreviates: intravenous administration, carnitines 50 mg/kg (combination 5 x 10 mg/kg), coenzyme Q10 20 mg/kg.
Where [7] appears, read: oral administration for four days prior to the test, carnitines 300 mg/kg (combination 5 x 75 mg/kg), coenzyme Q10 100 mg/kg.

In the case of `CC(=O)O[C@H](CC(=O)[O-])C[N+](C)(C)C` [Acetyl L-carnitine, acetyl L-carnitine], in data set [1], the “Extent of cerebral ischaemia due to occlusion of the MCA (% reduction in volume compared to controls)” value amounted to 15.8 ± 1.4% and the “ability to reduce the extent of the ischaemia induced by occlusion of the MCA (in words)” value (from here on “ability to reduce the extent”) is on record as “no significant protective effect”. Moreover, in data set [2] (setting [6]), the “% inhibition of thrombosis after 2 h” value stood at 8.8 ± 0.7% and the “% inhibition of thrombosis after 24 h” value turned out to be 10.6 ± 0.8%. Further, in data set [2] (setting [7]), the “% inhibition of thrombosis after 2 h” value stood at 9.2 ± 0.8% and the “% inhibition of thrombosis after 24 h” value worked out at 11.5 ± 1.5%. Besides, the “protective effect against the onset or severity of the vasculopathy lesions induced (in words)” value (“protective effect … (in words)” for short) in data set [2] was “ineffective”. In data set [3], the ATP concentrations, after hypoxia was determined as 0.54 ± 0.075 µmol/g tissue and the ATP concentrations, before hypoxia was found to be 1.58 ± 0.98 µmol/g tissue. In addition, in data set [4], the “activity in the learning test (in words)” value is given as “only poor activity”.
For `COC1=C(OC)C(=O)C(C/C=C(\C)CC/C=C(\C)CC/C=C(\C)CC/C=C(\C)CC/C=C(\C)CC/C=C(\C)CC/C=C(\C)CC/C=C(\C)CC/C=C(\C)CCC=C(C)C)=C(C)C1=O` [Coenzyme Q10, coenzyme Q10], the “Extent of cerebral ischaemia due to occlusion of the MCA (% reduction in volume compared to controls)” value in data set [1] is 22.2 ± 2.9%. In addition, in data set [2] (setting [6]), the “% inhibition of thrombosis after 2 h” value came to 11.7 ± 0.9% and the “% inhibition of thrombosis after 24 h” value worked out at 14.5 ± 1.3%. Besides, in data set [2] (setting [7]), the “% inhibition of thrombosis after 2 h” value was 13.8 ± 1.7% and the “% inhibition of thrombosis after 24 h” value was determined as 12.5 ± 1.7%. Moreover, the “protective effect … (in words)” value in data set [2] is “poorly effective”. In addition, in data set [3], the ATP concentrations, after hypoxia is 0.64 ± 0.068 µmol/g tissue; the ATP concentrations, before hypoxia was found to be 1.65 ± 0.7 µmol/g tissue; the “preservation of ATP concentrations in papillary muscle (in words)” value (from here on “preservation of ATP concentrations”) was “at least partially maintaining the ATP concentrations”. Besides, in data set [4], the “Latency period, administration (per os, 3 days)” value amounted to 31 ± 12 s and the “Latency period, administration (I.P.)” value was 31 ± 18 s.
Turning to `C[N+](C)(C)C[C@H](O)CC(=O)[O-]` [L-carnitine], in data set [1], the “Extent of cerebral ischaemia due to occlusion of the MCA (% reduction in volume compared to controls)” value stood at 10.5 ± 0.77% and the “ability to reduce the extent” value is “no significant protective effect; also recorded: much less pronounced”. In data set [2] (setting [6]), the “% inhibition of thrombosis after 2 h” value is given as 9.5 ± 0.4% and the “% inhibition of thrombosis after 24 h” value was determined as 11.5 ± 0.9%. Besides, in data set [2] (setting [7]), the “% inhibition of thrombosis after 2 h” value is reported as 8.5 ± 0.5% and the “% inhibition of thrombosis after 24 h” value is given as 9.2 ± 1.2%. In addition, in data set [2], the “protective effect … (in words)” value is on record as “ineffective”. Moreover, in data set [3], the ATP concentrations, after hypoxia was 0.5 ± 0.045 µmol/g tissue; the ATP concentrations, before hypoxia came out at 1.55 ± 0.8 µmol/g tissue; the “preservation of ATP concentrations” value is “Much more limited”. Moreover, in data set [4], the “Latency period, administration (per os, 3 days)” value stood at 39 ± 21 s; the “Latency period, administration (I.P.)” value is 40 ± 20 s; the “activity in the learning test (in words)” value is “inactive”.
Turning to `CCC(=O)O[C@H](CC(=O)[O-])C[N+](C)(C)C` [Propionyl L-carnitine, propionyl L-carnitine], in data set [1], the “Extent of cerebral ischaemia due to occlusion of the MCA (% reduction in volume compared to controls)” value worked out at 30.3 ± 3.6% and the “ability to reduce the extent” value is listed as “good ability to reduce the extent of the ischaemia”. Moreover, in data set [2] (setting [6]), the “% inhibition of thrombosis after 2 h” value is listed as 16.25 ± 0.7% and the “% inhibition of thrombosis after 24 h” value is recorded as 26.45 ± 1.9%. Further, in data set [2] (setting [7]), the “% inhibition of thrombosis after 2 h” value was 14.5 ± 0.7% and the “% inhibition of thrombosis after 24 h” value came to 30.5 ± 3.3%. Besides, in data set [2], the “protective effect … (in words)” value is given as “protective effect”. Besides, in data set [3], the ATP concentrations, after hypoxia was determined as 0.64 ± 0.055 µmol/g tissue; the ATP concentrations, before hypoxia is 1.58 ± 0.64 µmol/g tissue; the “preservation of ATP concentrations” value was “at least partially maintaining the ATP concentrations”. Further, in data set [4], the “Latency period, administration (per os, 3 days)” value came to 30 ± 16 s and the “Latency period, administration (I.P.)” value worked out at 32 ± 12 s. Also, the “toxic effects or signs of intolerance” value in data set [5] is “failed to reveal any toxic effects or signs of intolerance”.

Values taken from patent US6814972B2, “Composition for prevention and/or treatment of vascular diseases, comprising propionyl L-carnitine and coenzyme Q10” (priority 2000, dated 2004).
